Results on four molecules are retold here after patent US6939989B2, “Side-chain halogenated amino dicarboxylic acid derivatives as medicaments for treating cardiovascular diseases” (Bayer Aktiengesellschaft, priority 2001, dated 2005).

One test concerns the target T1, Heme-containing sGC (Rattus norvegicus, UniProt P20595).
T1 construct: made in house; host or cells: Sf9 insect cells (baculovirus)
T1 sequence (P20595 1-619): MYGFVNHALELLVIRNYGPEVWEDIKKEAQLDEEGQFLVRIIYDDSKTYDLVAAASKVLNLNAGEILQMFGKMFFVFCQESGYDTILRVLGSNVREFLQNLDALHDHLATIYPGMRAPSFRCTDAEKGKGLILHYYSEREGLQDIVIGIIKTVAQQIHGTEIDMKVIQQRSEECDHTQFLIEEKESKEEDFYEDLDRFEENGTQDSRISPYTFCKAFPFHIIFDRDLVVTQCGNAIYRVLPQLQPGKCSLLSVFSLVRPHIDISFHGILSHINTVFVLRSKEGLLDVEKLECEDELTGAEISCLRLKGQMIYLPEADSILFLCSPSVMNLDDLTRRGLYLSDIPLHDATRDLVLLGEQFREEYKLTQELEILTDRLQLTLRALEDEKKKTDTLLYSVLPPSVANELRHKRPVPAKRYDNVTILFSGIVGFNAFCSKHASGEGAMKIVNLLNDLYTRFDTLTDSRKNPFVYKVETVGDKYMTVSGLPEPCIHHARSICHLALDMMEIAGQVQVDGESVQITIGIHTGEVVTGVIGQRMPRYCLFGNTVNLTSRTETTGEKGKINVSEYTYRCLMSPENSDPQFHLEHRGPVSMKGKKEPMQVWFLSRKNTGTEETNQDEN
T1 sequence (P19686 1-690 partner): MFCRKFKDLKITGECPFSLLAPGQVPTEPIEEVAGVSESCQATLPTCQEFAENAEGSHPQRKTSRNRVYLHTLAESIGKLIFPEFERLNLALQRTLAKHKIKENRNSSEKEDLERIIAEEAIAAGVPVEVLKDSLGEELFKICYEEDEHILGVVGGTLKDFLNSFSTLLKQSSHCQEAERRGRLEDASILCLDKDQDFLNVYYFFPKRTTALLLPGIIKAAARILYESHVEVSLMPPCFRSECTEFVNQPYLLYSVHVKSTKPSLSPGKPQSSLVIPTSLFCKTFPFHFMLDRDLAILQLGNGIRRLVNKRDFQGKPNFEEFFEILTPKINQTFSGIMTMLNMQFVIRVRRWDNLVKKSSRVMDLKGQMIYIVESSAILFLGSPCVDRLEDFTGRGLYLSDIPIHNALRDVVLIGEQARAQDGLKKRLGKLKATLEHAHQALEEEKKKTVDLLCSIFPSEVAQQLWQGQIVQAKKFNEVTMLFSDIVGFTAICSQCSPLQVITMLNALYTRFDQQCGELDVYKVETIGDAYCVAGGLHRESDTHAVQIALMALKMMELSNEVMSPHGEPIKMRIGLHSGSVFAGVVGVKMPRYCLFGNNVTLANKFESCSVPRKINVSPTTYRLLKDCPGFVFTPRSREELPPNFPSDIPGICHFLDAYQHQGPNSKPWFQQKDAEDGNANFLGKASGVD
As to the kind of experiment: Stimulation of recombinant soluble guanylate cyclase (sGC) in vitro, heme-containing enzyme. The format is biochemical. Particulars: Ex. 6 0 μM. How it is done: The investigations of the stimulation of recombinant soluble guanylate cyclase (sGC) […] heme-dependent sGC inhibitor 1H-1,2,4-oxadiazole-(4,3a)-quinoxalin-1-one (ODQ) were carried out according to the method described in detail in the following literature reference: M. Hoenicka, E. M. Becker, H. Apeler, T. Sirichoke, H. Schroeder, R. Gerzer and J.-P. Stasch: Purified soluble guanylyl cyclase expressed in a baculovirus/Sf9 system: stimulation by YC-1, nitric oxide, and carbon oxide. J. Mol. Med. 77 (1999): 14-23.
Activation of sGC by a test substance is stated as n-fold stimulation of basal activity.

In another test the test system is arteria saphena rings. As to the kind of experiment: Vasorelaxant effect in vitro (phenylephrine-contracted arteria saphena rings). The test is classed as cell-based, Rabbits. Particulars: Oryctolagus cuniculus; rabbit arteria saphena rings, phenylephrine contraction. How it is done:
Rabbits are anesthetized or killed by intravenous injection of thiopental sodium (about 50 mg/kg) and exsanguinated. The arteria saphena is removed and divided into rings 3 mm wide. The individual rings are in each case mounted on a pair of hooks of triangular shape, open at the ends and made of special wire (Remanium®) having a diameter of 0.3 mm. Under pretension, each ring is introduced into a 5 ml organ bath containing carbogen-gassed Krebs-Henseleit solution at 37° C. with the following composition (mM): NaCl: 119; KCl: 4.8; CaCl2×2H2O: 1; MgSO4×7H2O: 1.4; KH2PO4: 1.2; NaHCO3: 25; glucose: 10; bovine serum albumin: 0.001%. The force of contraction is detected with Statham UC2 cells, amplified and digitized via A/D converters (DAS-1802 HC, Keithley Instruments, Munich) and recorded in parallel on chart recorders. Contractions are generated by adding phenylephrine.
After several (generally 4) control cycles, the substance to be investigated is added in each further run in increasing dosage, and the height of the contraction reached under the influence of the test substance is compared with the height of the contraction reached in the last preceding run. The concentration necessary to reduce the height of the control value by 50% (IC50) is calculated from this. The standard application volume is 5 μl. The DMSO content in the bath solution corresponds to 0. 1%.

As for `CCN(CC)[N+]([O-])=NO` [DEA/NO, 2-(N,N-diethylamino)diazenolate 2-oxide, reference compound], the “Stimulation (n-fold), heme-containing sGC, DEA/NO alone” value at Heme-containing sGC (DEA/NO 0.001 μM) worked out at 5 n-fold; on Heme-containing sGC (DEA/NO 0.01 μM) it was 30 n-fold; on Heme-containing sGC (DEA/NO 0.1 μM), 124 n-fold.

One may read the IC50 as the concentration at which inhibition is half-maximal. Low values mean inhibition by little substance, high ones a need for much substance. Molecule `O=C(O)CCCCN(CCc1ccccc1OCc1ccc(C2=CCCCC2)cc1Cl)Cc1ccc(C(=O)O)cc1` [Example 9] yielded a 50% inhibitory concentration (IC50) in the test on arteria saphena rings of 1.8 nM. This lies in the single-digit nanomolar range. In turn, `O=C(O)CCCCN(CCc1ccccc1OCc1ccc(C2CCCCC2)cc1Cl)Cc1ccc(C(=O)O)cc1` [Example 12] had a half-inhibitory concentration (IC50) in the test with arteria saphena rings of 2 nM. On the same count and under the same terms, as for `CC(C)(C)c1ccc(-c2ccc(COc3ccccc3CCN(CCCCC(=O)O)Cc3ccc(C(=O)O)cc3)c(F)c2)cc1` [Example 2], the figure is 0.15 nM.
